Measured values from PubChem BioAssay (NCI).
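1) Cells in 96-well plates. 2) Compound, 48 h, 5 concentrations. 3) Linear interpolation between surrounding doses. 4) Unreached endpoint = highest concentration. GI50 is the concentration that inhibits growth by half. At the TGI there is no net growth.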

Legend:
Test in all cases: growth of human tumour cells (NCI), 48 h
SK-MEL-2 melanoma = test system: SK-MEL-2 melanoma
MOLT-4 leukemia = test system: MOLT-4 leukemia
ACHN renal = test system: ACHN renal
OVCAR-5 ovarian = test system: OVCAR-5 ovarian
T-47D breast = test system: T-47D breast
HCT-116 colon = test system: HCT-116 colon
786-0 renal = test system: 786-0 renal
KM12 colon = test system: KM12 colon
SK-MEL-5 melanoma = test system: SK-MEL-5 melanoma
SW-620 colon = test system: SW-620 colon
A549 NSCLC = test system: A549 NSCLC
TK-10 renal = test system: TK-10 renal
CAKI-1 renal = test system: CAKI-1 renal
MALME-3M melanoma = test system: MALME-3M melanoma
DU-145 prostate = test system: DU-145 prostate
NCI/ADR-RES ovarian = test system: NCI/ADR-RES ovarian
SF-539 CNS = test system: SF-539 CNS
NCI-H522 lung = test system: NCI-H522 lung
SNB-75 CNS = test system: SNB-75 CNS
MDA-MB-231 breast = test system: MDA-MB-231 breast
UACC-257 melanoma = test system: UACC-257 melanoma
OVCAR-4 ovarian = test system: OVCAR-4 ovarian
SN12C renal = test system: SN12C renal
COLO 205 colon = test system: COLO 205 colon
MCF7 breast = test system: MCF7 breast
HS 578T breast = test system: HS 578T breast
RXF 393 renal = test system: RXF 393 renal
MDA-MB-435 = test system: MDA-MB-435
M14 melanoma = test system: M14 melanoma
HT29 colon = test system: HT29 colon
OVCAR-8 ovarian = test system: OVCAR-8 ovarian
IGROV1 ovarian = test system: IGROV1 ovarian
EKVX NSCLC = test system: EKVX NSCLC
HOP-92 NSCLC = test system: HOP-92 NSCLC
K-562 leukemia = test system: K-562 leukemia
HCC-2998 colon = test system: HCC-2998 colon
SR leukemia = test system: SR leukemia
HOP-62 NSCLC = test system: HOP-62 NSCLC
NCI-H460 lung = test system: NCI-H460 lung
SK-MEL-28 melanoma = test system: SK-MEL-28 melanoma
NCI-H23 lung = test system: NCI-H23 lung
PC-3 prostate = test system: PC-3 prostate
HCT-15 colon = test system: HCT-15 colon
U251 CNS = test system: U251 CNS
SK-OV-3 ovarian = test system: SK-OV-3 ovarian
SF-268 CNS = test system: SF-268 CNS
BT-549 breast = test system: BT-549 breast
SF-295 CNS = test system: SF-295 CNS
UACC-62 melanoma = test system: UACC-62 melanoma
RPMI-8226 leukemia = test system: RPMI-8226 leukemia
HL-60(TB) leukemia = test system: HL-60(TB) leukemia
UO-31 renal = test system: UO-31 renal
A498 renal = test system: A498 renal
NCI-H226 lung = test system: NCI-H226 lung
CCRF-CEM leukemia = test system: CCRF-CEM leukemia
SNB-19 CNS = test system: SNB-19 CNS

Q: Which results are given for `O=C(NCCCNc1cc(-c2cn(-c3ccccc3)nc2-c2cccc(O)c2)ccn1)Nc1ccc(F)cc1`?
A: GI50 (SK-MEL-2 melanoma): 4 µM; TGI (SK-MEL-2 melanoma): 10.1 µM; GI50 (MOLT-4 leukemia): 1.25 µM; TGI (MOLT-4 leukemia): 15.6 µM; GI50 (ACHN renal): 3.16 µM; TGI (ACHN renal): 14.2 µM; GI50 (OVCAR-5 ovarian): 3.37 µM; TGI (OVCAR-5 ovarian): 9.12 µM; GI50 (T-47D breast): 1.89 µM; TGI (T-47D breast): 11 µM; GI50 (HCT-116 colon): 1.62 µM; TGI (HCT-116 colon): 5.82 µM; GI50 (786-0 renal): 0.855 µM; TGI (786-0 renal): 3.61 µM; GI50 (KM12 colon): 2.61 µM; TGI (KM12 colon): 5.79 µM; GI50 (SK-MEL-5 melanoma): 1.64 µM; TGI (SK-MEL-5 melanoma): 4.83 µM; GI50 (SW-620 colon): 3.04 µM; TGI (SW-620 colon): 6.73 µM; GI50 (A549 NSCLC): 3.12 µM; TGI (A549 NSCLC): 21.7 µM; GI50 (TK-10 renal): 6.78 µM; TGI (TK-10 renal): 20.3 µM; GI50 (CAKI-1 renal): 2.04 µM; TGI (CAKI-1 renal): 10.7 µM; GI50 (MALME-3M melanoma): 0.826 µM; TGI (MALME-3M melanoma): 3.42 µM; GI50 (DU-145 prostate): 4.22 µM; TGI (DU-145 prostate): 19.3 µM; GI50 (NCI/ADR-RES ovarian): 3.51 µM; TGI (NCI/ADR-RES ovarian): 12.5 µM; GI50 (SF-539 CNS): 1.98 µM; TGI (SF-539 CNS): 5.38 µM; GI50 (NCI-H522 lung): 4.03 µM; TGI (NCI-H522 lung): 9.49 µM; GI50 (SNB-75 CNS): 0.543 µM; TGI (SNB-75 CNS): 3.18 µM; GI50 (MDA-MB-231 breast): 2.18 µM; TGI (MDA-MB-231 breast): 7.78 µM; GI50 (UACC-257 melanoma): 3.07 µM; TGI (UACC-257 melanoma): 7.54 µM; GI50 (OVCAR-4 ovarian): 1.46 µM; TGI (OVCAR-4 ovarian): 8.21 µM; GI50 (SN12C renal): 2.79 µM; TGI (SN12C renal): 8.37 µM; GI50 (COLO 205 colon): 2.34 µM; TGI (COLO 205 colon): 6.28 µM; GI50 (MCF7 breast): 2.32 µM; TGI (MCF7 breast): 6.04 µM; GI50 (HS 578T breast): 0.984 µM; TGI (HS 578T breast): 5.31 µM; GI50 (RXF 393 renal): 0.966 µM; TGI (RXF 393 renal): 4.85 µM; GI50 (MDA-MB-435): 1.66 µM; TGI (MDA-MB-435): 5.05 µM; GI50 (M14 melanoma): 1.57 µM; TGI (M14 melanoma): 5.85 µM; GI50 (HT29 colon): 1.09 µM; TGI (HT29 colon): 4.99 µM; GI50 (OVCAR-8 ovarian): 2.13 µM; TGI (OVCAR-8 ovarian): 9.26 µM; GI50 (IGROV1 ovarian): 1.23 µM; TGI (IGROV1 ovarian): 5.82 µM; GI50 (EKVX NSCLC): 2.74 µM; TGI (EKVX NSCLC): 9.51 µM; GI50 (HOP-92 NSCLC): 0.86 µM; TGI (HOP-92 NSCLC): 4.97 µM; GI50 (K-562 leukemia): 0.812 µM; TGI (K-562 leukemia): 25 µM; GI50 (HCC-2998 colon): 1.09 µM; TGI (HCC-2998 colon): 4.05 µM; GI50 (SR leukemia): 1.51 µM; TGI (SR leukemia): 13.8 µM; GI50 (HOP-62 NSCLC): 3.24 µM; TGI (HOP-62 NSCLC): 9.26 µM; GI50 (NCI-H460 lung): 2.35 µM; TGI (NCI-H460 lung): 5.88 µM; GI50 (SK-MEL-28 melanoma): 2.54 µM; TGI (SK-MEL-28 melanoma): 5.64 µM; GI50 (NCI-H23 lung): 3.11 µM; TGI (NCI-H23 lung): 7.65 µM; GI50 (PC-3 prostate): 1.33 µM; TGI (PC-3 prostate): 8.92 µM; GI50 (HCT-15 colon): 0.936 µM; TGI (HCT-15 colon): 4.04 µM; GI50 (U251 CNS): 2.05 µM; TGI (U251 CNS): 7.55 µM; GI50 (SK-OV-3 ovarian): 3.12 µM; TGI (SK-OV-3 ovarian): 10.8 µM; GI50 (SF-268 CNS): 2.61 µM; TGI (SF-268 CNS): 11.2 µM; GI50 (BT-549 breast): 2.18 µM; TGI (BT-549 breast): 11.6 µM; GI50 (SF-295 CNS): 1.38 µM; TGI (SF-295 CNS): 4.84 µM; GI50 (UACC-62 melanoma): 3.14 µM; TGI (UACC-62 melanoma): 6.6 µM; GI50 (RPMI-8226 leukemia): 0.865 µM; TGI (RPMI-8226 leukemia): 5.47 µM; GI50 (HL-60(TB) leukemia): 2.15 µM; TGI (HL-60(TB) leukemia): 14.2 µM; GI50 (UO-31 renal): 1.58 µM; TGI (UO-31 renal): 9.7 µM; GI50 (A498 renal): 1.21 µM; TGI (A498 renal): 4.96 µM; GI50 (NCI-H226 lung): 3.39 µM; TGI (NCI-H226 lung): 8.91 µM; GI50 (CCRF-CEM leukemia): 1.42 µM; TGI (CCRF-CEM leukemia): 25 µM; GI50 (SNB-19 CNS): 3.29 µM; TGI (SNB-19 CNS): 9.75 µM
